# Laboratory results taken from patent publication US20230295166A1, “ATR INHIBITORS AND USES THEREOF” (ANTENGENE DISCOVERY LIMITED, priority 2020, published 2023).
# Tested on: LoVo (CCL-229) cells
# Experiment: Tumor cell anti-proliferation assay (CTG assay)
# Format: cell-based
# Conditions: LoVo human colorectal cancer cells, 96 h, CellTiter-Glo
# Description: Assay 2: Tumor Cell Anti-proliferation Assay (CTG Assay)
# Human colorectal cancer cells HT-29 (HTB-38) and LoVo (CCL-229) were selected for the CTG assay, the two cell lines were originally obtained from the American Type Culture Collection (ATCC). FBS and appropriate additives were added into base medium to prepare complete medium, then the cell layer was briefly rinsed with 0.25% (w/v) Trypsin-0.038% (w/v) EDTA solution to remove all traces of serum that contains trypsin inhibitor. After that, appropriate volume of Trypsin-EDTA solution was added to flask and cells under an inverted microscope were observed until cell layer was dispersed. At last, appropriate volume of complete growth medium was added and cells were aspirated by gently pipetting. Numbers were collected and counted with Vi-cell XR and cell density was adjusted, cells were seeded into 96-well opaque-walled clear bottom tissue-culture treated plates in the CO2 incubator for 20-24 hours. All the test compounds were at 10 mM in DMSO. Compounds were then added to the cell media in 3-fold serial dilutions, the final DMSO concentration was 0.5%. Plates were incubated for 96 h at 5% CO2, 37° C. Before the measurement, the appropriate volume of CellTiter-Glo Buffer was transferred into the amber bottle containing CellTiter-Glo substrate to reconstitute the lyophilized enzyme/substrate mixture, mixed gently, thereby forming the CellTiter-Glo Reagent (Promega Cat. No. G7573). The plate and its contents were equilibrated to room temperature for approximately 30 minutes, then 100 μL of CellTiter-Glo Reagent was added to the assay plate, the contents were mixed for 2 minutes on an orbital shaker to induce cell lysis, incubated at room temperature for 10 minutes to stabilize luminescent signal. At last the clear bottom was pasted with white back seal and luminescence was recorded with Enspire. IC50 and GI50 values were calculated with XLFit curve fitting software using 4 Parameter Logistic Model Y=Bottom+(Top−Bottom)/(1+(IC50/X)^HillSlope).
row,IC50 [nM],Compound
1,446,"Cc1cc(-c2cnc3c(-c4ccnn4C)cc(N4CCOC[C@H]4C)nn23)[nH]n1 [Example 23, (R)-3-methyl-4-(8-(1-methyl-1H-pyrazol-5-yl)-3-(3-methyl-1H-pyrazol-5-yl)imidazo[1,2-b]pyridazin-6-yl)morpholine]"
2,471,"C[C@@H]1COCCN1c1cc(-c2ccnn2C)n2ccc(-c3ccn[nH]3)c2n1 [Example 28, (R)-3-methyl-4-(4-(1-methyl-1H-pyrazol-5-yl)-8-(1H-pyrazol-5-yl)pyrrolo[1,2-a]pyrimidin-2-yl)morpholine]"
3,129,"Cc1cc(-c2ncc3c(-c4c(C)nnn4C)cc(N4CCOC[C@H]4C)nn23)[nH]n1 [Example 35, (3R)-4-(4-(1,4-dimethyl-1H-1,2,3-triazol-5-yl)-7-(3-methyl-1H-pyrazol-5-yl)imidazo[1,5-b]pyridazin-2-yl)-3-methylmorpholine]"
4,17.8,"Cc1nc(-c2ccn[nH]2)n2nc(N3CCOC[C@H]3C)cc(-c3ccnn3C)c12 [Example 36, (R)-3-methyl-4-(5-methyl-4-(1-methyl-1H-pyrazol-5-yl)-7-(1H-pyrazol-5-yl)imidazo[1,5-b]pyridazin-2-yl)morpholine]"
5,36.6,"Cc1cc(-c2nsc3c(-c4ccnn4C)cc(N4CCOC[C@H]4C)nc23)[nH]n1 [Example 37, (R)-3-methyl-4-(7-(1-methyl-1H-pyrazol-5-yl)-3-(3-methyl-1H-pyrazol-5-yl)isothiazolo[4,5-b]pyridin-5-yl)morpholine]"
6,40.4,"Cc1nnn(C)c1-c1cc(N2CCOC[C@H]2C)nc2c(-c3ccn[nH]3)nsc12 [Example 38, (R)-4-(7-(1,4-dimethyl-1H-1,2,3-triazol-5-yl)-3-(1H-pyrazol-5-yl)isothiazolo[4,5-b]pyridin-5-yl)-3-methylmorpholine]"
7,23.8,"C[C@@H]1COCCN1c1cc(C(C)(C)C#N)c2cnc(-c3ccn[nH]3)n2n1 [Example 40, (R)-2-methyl-2-(2-(3-methylmorpholino)-7-(1H-pyrazol-5-yl)imidazo[1,5-b]pyridazin-4-yl)propanenitrile]"
8,86.6,"C[C@@H]1COCCN1c1cc(C(C)(C)S(C)(=O)=O)c2cnc(-c3ccn[nH]3)n2n1 [Example 41, (3R)-4-[4-(2-methanesulfonylpropan-2-yl)-7-(1H-pyrazol-5-yl)imidazo[1,5-b]pyridazin-2-yl]-3-methylmorpholine]"
9,79.3,"Cc1cc(-c2ncc3c(C(C)(C)S(C)(=O)=O)cc(N4CCOC[C@H]4C)nn23)[nH]n1 [Example 42, (R)-3-methyl-4-(7-(3-methyl-1H-pyrazol-5-yl)-4-(2-(methylsulfonyl)propan-2-yl)imidazo[1,5-b]pyridazin-2-yl)morpholine]"
10,43.9,"C[C@@H]1COCCN1c1cc(C2(C#N)CC2)c2cnc(-c3ccn[nH]3)n2n1 [Example 44, (R)-1-(2-(3-methylmorpholino)-7-(1H-pyrazol-5-yl)imidazo[1,5-b]pyridazin-4-yl)cyclopropane-1-carbonitrile]"
11,81.7,"Cc1nnn(C)c1-c1cc(N2CCOC[C@H]2C)nn2c(-c3ccn[nH]3)nc(C)c12 [Example 45, (3R)-4-[4-(dimethyl-1H-1,2,3-triazol-5-yl)-5-methyl-7-(1H-pyrazol-5-yl)imidazo[1,5-b]pyridazin-2-yl]-3-methylmorpholine]"
12,51.2,"Cc1cc(-c2nc(C)c3c(-c4c(C)nnn4C)cc(N4CCOC[C@H]4C)nn23)[nH]n1 [Example 46, (3R)-4-[4-(dimethyl-1H-1,2,3-triazol-5-yl)-5-methyl-7-(3-methyl-1H-pyrazol-5-yl)imidazo[1,5-b]pyridazin-2-yl]-3-methylmorpholine]"
13,17.1,"Cc1cc(-c2nc(C)c3c(-c4ccnn4C)cc(N4CCOC[C@H]4C)nn23)[nH]n1 [Example 47, (R)-3-methyl-4-(5-methyl-4-(1-methyl-1H-pyrazol-5-yl)-7-(3-methyl-1H-pyrazol-5-yl)imidazo[1,5-b]pyridazin-2-yl)morpholine]"
14,16.1,"C[C@@H]1COCCN1c1cc(C2(S(C)(=O)=O)CC2)c2snc(-c3ccn[nH]3)c2n1 [Example 49, (R)-3-methyl-4-(7-(1-(methylsulfonyl)cyclopropyl)-3-(1H-pyrazol-5-yl)isothiazolo[4,5-b]pyridin-5-yl)morpholine]"
15,66.7,"Cc1cc(-c2nsc3c(C(C)(C)C#N)cc(N4CCOC[C@H]4C)nc23)[nH]n1 [Example 54, (R)-2-methyl-2-(3-(3-methyl-1H-pyrazol-5-yl)-5-(3-methylmorpholino)isothiazolo[4,5-b]pyridin-7-yl)propanenitrile]"
16,28.1,"C[C@@H]1COCCN1c1cc(C2(C#N)CCCC2)c2cnc(-c3ccn[nH]3)n2n1 [Example 59, 1-{2-[(3R)-3-methylmorpholin-4-yl]-7-(1H-pyrazol-5-yl)imidazo[1,5-b]pyridazin-4-yl}cyclopentane-1-carbonitrile]"
17,26.5,"C[C@@H]1COCCN1c1cc(-c2ccnn2C)c2c(Cl)nc(-c3ccn[nH]3)n2n1 [Example 61, (3R)-4-[5-chloro-4-(1-methyl-1H-pyrazol-5-yl)-7-(1H-pyrazol-5-yl)imidazo[1,5-b]pyridazin-2-yl]-3-methylmorpholine]"
18,55.2,"Cc1nc(-c2ccn[nH]2)n2nc(N3CC4CCC(C3)O4)cc(-c3ccnn3C)c12 [Example 65, 3-[5-methyl-4-(1-methyl-1H-pyrazol-5-yl)-7-(1H-pyrazol-5-yl)imidazo [1,5-b]pyridazin-2-yl]-8-oxa-3-azabicyclo[3.2.1]octane]"
19,69,"Cc1cc(-c2nc(C)c3c(-c4ccnn4C)cc(N4CC5CCC(C4)O5)nn23)[nH]n1 [Example 66, 3-[5-methyl-4-(1-methyl-1H-pyrazol-5-yl)-7-(3-methyl-1H-pyrazol-5-yl)imidazo[1,5-b]pyridazin-2-yl]-8-oxa-3-azabicyclo[3.2.1]octane]"
20,5,"Cc1cc(-c2nsc3c(C(C)(C)O)cc(N4CCOC[C@H]4C)nc23)[nH]n1 [Example 67, (R)-2-(3-(3-methyl-1H-pyrazol-5-yl)-5-(3-methylmorpholino)isothiazolo[4,5-b]pyridin-7-yl)propan-2-ol]"
21,16,"Cc1cc(-c2nsc3c(-c4cnnn4C)cc(N4CCOC[C@H]4C)nc23)[nH]n1 [Example 68, (R)-3-methyl-4-(7-(1-methyl-1H-1,2,3-triazol-5-yl)-3-(3-methyl-1H-pyrazol-5-yl)isothiazolo[4,5-b]pyridin-5-yl)morpholine]"
22,15,"C[C@@H]1COCCN1c1cc(-c2cnnn2C)c2snc(-c3ccn[nH]3)c2n1 [Example 69, (R)-3-methyl-4-(7-(1-methyl-1H-1,2,3-triazol-5-yl)-3-(1H-pyrazol-5-yl)isothiazolo[4,5-b]pyridin-5-yl)morpholine]"
23,18,"Cc1cnn(C)c1-c1cc(N2CCOC[C@H]2C)nc2c(-c3ccn[nH]3)nsc12 [Example 70, (R)-4-(7-(1,4-dimethyl-1H-pyrazol-5-yl)-3-(1H-pyrazol-5-yl)isothiazolo[4,5-b]pyridin-5-yl)-3-methylmorpholine]"
24,23,"Cc1cc(-c2nsc3c(-c4c(C)cnn4C)cc(N4CCOC[C@H]4C)nc23)[nH]n1 [Example 71, (R)-4-(7-(1,4-dimethyl-1H-pyrazol-5-yl)-3-(3-methyl-1H-pyrazol-5-yl)isothiazolo[4,5-b]pyridin-5-yl)-3-methylmorpholine]"
25,101,"Cc1noc(C)c1-c1cc(N2CCOC[C@H]2C)nc2c(-c3ccn[nH]3)nsc12 [Example 72, (R)-4-(7-(3,5-dimethylisoxazol-4-yl)-3-(1H-pyrazol-5-yl)isothiazolo[4,5-b]pyridin-5-yl)-3-methylmorpholine]"
26,41,"Cc1cc(-c2nsc3c(-c4c(C)noc4C)cc(N4CCOC[C@H]4C)nc23)[nH]n1 [Example 73, (R)-4-(7-(3,5-dimethylisoxazol-4-yl)-3-(3-methyl-1H-pyrazol-5-yl)isothiazolo[4,5-b]pyridin-5-yl)-3-methylmorpholine]"
27,1000,"C[C@@H]1COCCN1c1cc(C2(S(C)(=O)=O)CC2)nc(Nc2cc(Cl)n[nH]2)n1 [Example 77, (R)—N-(3-chloro-1H-pyrazol-5-yl)-4-(3-methylmorpholino)-6-(1-(methylsulfonyl)cyclopropyl)pyrimidin-2-amine]"
28,152,"Cn1nccc1-c1cc(N2CC3CCC(C2)O3)nn2c(-c3ccn[nH]3)ncc12 [Example 78, 3-[4-(1-methyl-1H-pyrazol-5-yl)-7-(1H-pyrazol-5-yl)imidazo[1,5-b]pyridazin-2-yl]-8-oxa-3-azabicyclo[3.2.1]octane]"
29,246,"Cc1cc(-c2ncc3c(-c4ccnn4C)cc(N4CC5CCC(C4)O5)nn23)[nH]n1 [Example 79, 3-[4-(1-methyl-1H-pyrazol-5-yl)-7-(3-methyl-1H-pyrazol-5-yl)imidazo[1,5-b]pyridazin-2-yl]-8-oxa-3-azabicyclo[3.2.1]octane]"
30,20,"Cc1cc(-c2nsc3c(N4CCCCS4(=O)=O)cc(N4CCOC[C@H]4C)nc23)[nH]n1 [Example 82, 2-[3-(3-methyl-1H-pyrazol-5-yl)-5-[(3R)-3-methylmorpholin-4-yl]-[1,2]thiazolo[4,5-b]pyridin-7-yl]-1λ^6,2-thiazinane-1,1-dione]"
